Measured values taken from patent US7297704B2, “Cycloalkyfused indole, benzothiophene, benzofuran and idene derivatives” (Wyeth, priority 2005, dated 2007).
Structures can show the parent of a compound that is named as a salt.

CCC(C)N(C[C@H]1CCc2[nH]c3ccc(F)cc3c2C1)C[C@H]1COc2ccc3nc(C)ccc3c2O1.Cl.O (stereo partly drawn) (hydrate or solvate) [Example 62, N-{[(3S)-6-Fluoro-2,3,4,9-tetrahydro-1H-carbazol-3-yl]methyl}-N-{[(2S)-8-methyl-2,3-dihydro[1,4]dioxino[2,3-f]quinolin-2-yl]methyl}butan-2-amine monohydrochloride monohydrate]
melting point: 246 to 257 °C

Cc1ccc2c3c(ccc2n1)OC[C@H](CNC[C@@H]1CCc2c(c4cc(F)ccc4n2C)C1)O3 (as salt: hydrochloride) [Example 8, N-{[(3R)-6-fluoro-9-methyl-2,3,4,9-tetrahydro-1H-carbazol-3-yl]methyl}-N-{[(2S)-8-methyl-2,3-dihydro[1,4]dioxino[2,3-f]quinolin-2-yl]methyl}amine]
melting point: 242 to 260 °C

Cc1ccc2c3c(ccc2n1)OC[C@H](CN(C[C@H]1CCc2[nH]c4ccc(F)cc4c2C1)C1CCCC1)O3.Cl.O (hydrate or solvate) [Example 63, N-{[(3S)-6-Fluoro-2,3,4,9-tetrahydro-1H-carbazol-3-yl]methyl}-N-{[(2S)-8-methyl-2,3-dihydro[1,4]dioxino[2,3-f]quinolin-2-yl]methyl}cyclopentanamine monohydrochloride monohydrate]
melting point: 237 to 254 °C

Cc1ccc2c3c(ccc2n1)OC[C@H](CN(C[C@@H]1CCc2[nH]c4ccc(F)cc4c2C1)C1CCCCC1)O3.Cl.O (hydrate or solvate) [Example 60, N-{[(3R)-6-fluoro-2,3,4,9-tetrahydro-1H-carbazol-3-yl]methyl}-N-{[(2S)-8-methyl-2,3-dihydro[1,4]dioxino[2,3-f]quinolin-2-yl]methyl}cyclohexanamine monohydrochloride monohydrate]
melting point: 207 to 218 °C

Cc1ccc2c3c(ccc2n1)OC[C@H](CN(C[C@@H]1CCc2[nH]c4ccc(F)cc4c2C1)C1CCCC1)O3.Cl.O (hydrate or solvate) [Example 59, N-{[(3R)-6-Fluoro-2,3,4,9-tetrahydro-1H-carbazol-3-yl]methyl}-N-{[(2S)-8-methyl-2,3-dihydro[1,4]dioxino[2,3-f]quinolin-2-yl]methyl}cyclopentanamine monohydrochloride monohydrate]
melting point: 225 to 243 °C

CCCN(CC1CCc2[nH]c3ccc(F)cc3c2C1)C[C@H]1COc2ccc3nc(C)ccc3c2O1.Cl.Cl.O.O (stereo partly drawn) (hydrate or solvate) [Example 51, N-[(6-Fluoro-2,3,4,9-tetrahydro-1H-carbazol-3-yl)methyl]-N-{[(2S)-8-methyl-2,3-dihydro[1,4]dioxino[2,3-f]quinolin-2-yl]methyl}propan-1-amine dihydrochloride dihydrate]
melting point: 187 to 201 °C

Cc1ccc2c3c(ccc2n1)OC[C@H](CNC[C@H]1CCc2c(c4cc(F)ccc4n2C)C1)O3 (as salt: hydrochloride) [Example 7]
melting point: 220 to 226 °C

Cc1ccc2c3c(ccc2n1)OC[C@H](CNC[C@H]1CCc2[nH]c4ccccc4c2C1)O3 (single isomer, unassigned) (as salt: hydrochloride) [Example 100a]
melting point: 202 to 205 °C (dec.)

Cc1ccc2c3c(ccc2n1)OC[C@H](CN(C)C[C@@H]1CCc2c(c4cc(F)ccc4n2C)C1)O3.Cl.O (hydrate or solvate) [Example 69, {[(3R)-6-Fluoro-9-methyl-2,3,4,9-tetrahydro-1H-carbazol-3-yl]methyl}methyl{[(2S)-8-methyl-2,3-dihydro[1,4]dioxino[2,3-f]quinolin-2-yl]methyl}amine monohydrochloride monohydrate]
melting point: 244 to 256 °C

Cc1ccc2c3c(ccc2n1)OC[C@H](CN(C[C@H]1CCc2[nH]c4ccc(F)cc4c2C1)C(C)C)O3.Cl.O (hydrate or solvate) [Example 61, N-{[(3S)-6-Fluoro-2,3,4,9-tetrahydro-1H-carbazol-3-yl]methyl}-N-{[(2S)-8-methyl-2,3-dihydro[1,4]dioxino[2,3-f]quinolin-2-yl]methyl}propan-2-amine monohydrochloride monohydrate]
melting point: 228 to 240 °C

CCN(CC1CCc2[nH]c3ccc(F)cc3c2C1)C[C@H]1COc2ccc3nc(C)ccc3c2O1.Cl.Cl.O.O (stereo partly drawn) (hydrate or solvate) [Example 50, N-[(6-Fluoro-2,3,4,9-tetrahydro-1H-carbazol-3-yl)methyl]-N-{[(2S)-8-methyl-2,3-dihydro[1,4]dioxino[2,3-f]quinolin-2-yl]methyl}ethanamine dihydrochloride dihydrate]
melting point: 234 to 249 °C

Cc1ccc2c3c(ccc2n1)OCC(CNCC1CCc2[nH]c4ccc(Cl)cc4c2C1)O3 (stereo not drawn) [Example 85, (6-Chloro-2,3,4,9-tetrahydro-1H-carbazol-3-ylmethyl)-(8-methyl-2,3-dihydro-[1,4]dioxino[2,3-f]quinolin-2-ylmethyl)-amine]
melting point: 235 to 237 °C

Cc1ccc2c3c(ccc2n1)OC[C@H](CN(CC1CC1)CC1CCc2[nH]c4ccc(F)cc4c2C1)O3.Cl.Cl.O.O (stereo partly drawn) (hydrate or solvate) [Example 52, (Cyclopropylmethyl)[(6-fluoro-2,3,4,9-tetrahydro-1H-carbazol-3-yl)methyl]{[(2S)-8-methyl-2,3-dihydro[1,4]dioxino[2,3-f]quinolin-2-yl]methyl}amine dihydrochloride dihydrate]
melting point: 215 to 230 °C

Cc1ccc2c3c(ccc2n1)OC[C@H](CN(CC1CCc2c(c4cc(F)ccc4n2C)C1)C1CCCCC1)O3.Cl.O (stereo partly drawn) (hydrate or solvate) [Example 67, N-[(6-Fluoro-9-methyl-2,3,4,9-tetrahydro-1H-carbazol-3-yl)methyl]-N-{[(2S)-8-methyl-2,3-dihydro[1,4]dioxino[2,3-f]quinolin-2-yl]methyl}cyclohexanamine monohydrochloride monohydrate]
melting point: 204 to 225 °C

Cc1ccc2c3c(ccc2n1)OC[C@H](CN(C[C@@H]1CCc2[nH]c4ccc(F)cc4c2C1)C(C)C)O3.Cl.O (hydrate or solvate) [Example 57, N-{[(3R)-6-Fluoro-2,3,4,9-tetrahydro-1H-carbazol-3-yl]methyl}-N-{[(2S)-8-methyl-2,3-dihydro[1,4]dioxino[2,3-f]quinolin-2-yl]methyl}propan-2-amine monohydrochloride monohydrate]
melting point: 230 to 243 °C

Cc1ccc2c3c(ccc2n1)OC[C@H](CNC1CCc2c([nH]c4ccc(F)cc24)C1)O3 (mixture of isomers) (as salt: hydrochloride) [Example 46, 6-Fluoro-N-{[(2S)-8-methyl-2,3-dihydro[1,4]dioxino[2,3-f]quinolin-2-yl]methyl}-2,3,4,9-tetrahydro-1H-carbazol-2-amine]
melting point: 226 to 228 °C (dec.)

Cc1ccc2c3c(ccc2n1)OC[C@H](CN(C)C[C@H]1CCc2c(c4cc(F)ccc4n2C)C1)O3.Cl.O (hydrate or solvate) [Example 68, {[(3S)-6-Fluoro-9-methyl-2,3,4,9-tetrahydro-1H-carbazol-3-yl]methyl}methyl{[(2S)-8-methyl-2,3-dihydro[1,4]dioxino[2,3-f]quinolin-2-yl]methyl}amine monohydrochloride monohydrate]
melting point: 248 to 258 °C

Cc1ccc2c3c(ccc2n1)OCC(CN(CC1CCc2c(c4cc(F)ccc4n2C)C1)C(C)C)O3 (as salt: hydrochloride) (hydrate or solvate) [Example 65, N-[(6-Fluoro-9-methyl-2,3,4,9-tetrahydro-1H-carbazol-3-yl)methyl]-N-([(2S)-8-methyl-2,3-dihydro[1,4]dioxino[2,3-f]quinolin-2-yl]methylpropan-2-aminemonohydrochloride monohydrate]
melting point: 201 to 222 °C

Cc1ccc2c3c(ccc2n1)OC[C@H](CN(CC1CCc2c(c4cc(F)ccc4n2C)C1)C1CCCC1)O3.Cl.O (stereo partly drawn) (hydrate or solvate) [Example 66, N-[(6-Fluoro-9-methyl-2,3,4,9-tetrahydro-1H-carbazol-3-yl)methyl]-N-{[(2S)-8-methyl-2,3-dihydro[1,4]dioxino[2,3-f]quinolin-2-yl]methyl}cyclopentanamine monohydrochloride monohydrate]
melting point: 206 to 222 °C

Cc1ccc2c3c(ccc2n1)OC[C@H](CNC[C@@H]1CCc2[nH]c4ccc(F)cc4c2C1)O3 (as salt: hydrochloride) [Example 5, N-{[(3R)-6-fluoro-2,3,4,9-tetrahydro-1H-carbazol-3-yl]methyl}-N-{[(2S)-8-methyl-2,3-dihydro[1,4]dioxino[2,3-f]quinolin-2-yl]methyl}amine]
melting point: 229 to 236 °C

Cc1ccc2c3c(ccc2n1)OC[C@H](CN(C[C@H]1CCc2[nH]c4ccc(F)cc4c2C1)C1CCCCC1)O3.Cl.O (hydrate or solvate) [Example 64, N-{[(3S)-6-Fluoro-2,3,4,9-tetrahydro-1H-carbazol-3-yl]methyl}-N-{[(2S)-8-methyl-2,3-dihydro[1,4]dioxino[2,3-f]quinolin-2-yl]methyl}cyclohexanamine monohydrochloride monohydrate]
melting point: 202 to 208 °C
